Measured values reported in the supplement of paper PMC10627819.

Experiments:
S. aureus Newman = experiment: Bliss interaction score (quartile over a dose matrix) (fitness difference); higher = more antagonism (negative = synergy)
Procedure, shortened: (§1)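 The Bliss score was calculated by subtracting the expected fitness, the product of single-drug values, from the observed fitness. OD595 at entry into stationary phase, over the plate's robust no-drug mean and capped at 1, served as the fitness readout. Single-drug values were inferred from combination data, and scores are summarised by quartiles across technical, biological and donor/recipient replicates.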

S. pneumoniae D39V [1] = experiment: as above
Procedure, shortened: as §1

S. aureus DSM 20231 [2] = experiment: as above
Procedure, shortened: as §1

B. subtilis 168 [3] = experiment: as above
Procedure, shortened: as §1

S. pneumoniae D39V [4] = experiment: fitness (endpoint OD595 vs no drug) (fraction); higher = more growth
Procedure, shortened: (§2)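 With the first reading as background, OD595 was measured every 30 min for 14 h in 384-well plates kept at 37 °C and inoculated at OD595 0.01. TSB, LB Lennox or CY was the medium. Fitness is the optical density at the transition into stationary phase divided by the robust mean of no-drug control wells, with a cap of 1.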

S. aureus DSM 20231 [5] = experiment: as above
Procedure, shortened: as §2

B. subtilis 168 [6] = experiment: as above
Procedure, shortened: as §2
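Wherever Bliss interaction score (quartile over a dose matrix) is given: first quartile when negative (synergy) and third quartile when positive (antagonism).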

CO/N=C(\C(=O)N[C@@H]1C(=O)N2C(C(=O)O)=C(COC(C)=O)CS[C@H]12)c1csc(N)n1 [Cefotaxime] + CCC[C@@H]1C[C@@H](C(=O)N[C@@H]([C@H]2O[C@H](SC)[C@H](O)[C@@H](O)[C@H]2O)[C@@H](C)O)N(C)C1 [Lincomycin]
Conditions | Bliss interaction score
B. subtilis 168 [3] | 0.0413
S. aureus DSM 20231 [2] | 0.0625
S. aureus Newman | -0.173
S. pneumoniae D39V [1] | 0.105

fitness
Conditions | partner 0.1 µg/mL | partner 0.2 µg/mL | partner 0.215 µg/mL | partner 0.4 µg/mL | partner 0.43 µg/mL | partner 0.8 µg/mL | partner 0.86 µg/mL
B. subtilis 168 [6], first compound 0.5 µg/mL | 0.257 | 0.241 | – | 0.201 | – | – | –
B. subtilis 168 [6], first compound 1 µg/mL | 0.144 | 0.126 | – | 0.0991 | – | – | –
B. subtilis 168 [6], first compound 2 µg/mL | 0.0702 | 0.0617 | – | 0.0675 | – | – | –
S. aureus DSM 20231 [5], first compound 0.039 µg/mL | 0.748 | 0.799 | – | – | – | – | –
S. aureus DSM 20231 [5], first compound 0.078 µg/mL | 0.721 | 0.728 | – | – | – | – | –
S. aureus DSM 20231 [5], first compound 0.156 µg/mL | 0.628 | 0.659 | – | 0.353 | – | – | –
S. aureus DSM 20231 [5], first compound 0.312 µg/mL | 0.582 | 0.569 | – | 0.188 | – | – | –
S. pneumoniae D39V [4], first compound 0.0018 µg/mL | – | 0.667 | 0.903 | 0.469 | 0.759 | 0.185 | 0.56
S. pneumoniae D39V [4], first compound 0.0035 µg/mL | – | 0.626 | 0.866 | 0.455 | 0.748 | 0.142 | 0.489
S. pneumoniae D39V [4], first compound 0.007 µg/mL | – | 0.566 | 0.868 | 0.388 | 0.791 | 0.0851 | 0.469

fitness, B. subtilis 168 [6], one replicate
Conditions | first compound 0.00775 µg/mL | first compound 0.0155 µg/mL | first compound 0.031 µg/mL | first compound 0.0625 µg/mL | first compound 0.125 µg/mL | first compound 0.25 µg/mL
partner 0.1 µg/mL | – | – | – | 0.506 | 0.44 | 0.334
partner 0.2 µg/mL | – | – | – | 0.548 | 0.452 | 0.371
partner 0.4 µg/mL | 0.767 | 0.667 | 0.452 | 0.475 | 0.444 | 0.319
partner 0.8 µg/mL | 0.744 | 0.619 | 0.415 | – | – | –
partner 1.6 µg/mL | 0.683 | 0.575 | 0.388 | – | – | –

COc1ccc(C[C@H](N)C(=O)N[C@H]2[C@@H](O)[C@H](n3cnc4c(N(C)C)ncnc43)O[C@@H]2CO)cc1 [Puromycin] + COc1cc(Cc2cnc(N)nc2N)cc(OC)c1OC [Trimethoprim]
Conditions | Bliss interaction score
B. subtilis 168 [3] | 0.0908
S. aureus DSM 20231 [2] | 0.113
S. aureus Newman | 0.0927
S. pneumoniae D39V [1] | -0.203

fitness, one replicate
Conditions | first compound 0.39 µg/mL | first compound 0.78 µg/mL | first compound 1.56 µg/mL | first compound 3.12 µg/mL | first compound 6.24 µg/mL
B. subtilis 168 [6], partner 0.1 µg/mL | 0.818 | 0.875 | 0.962 | – | –
B. subtilis 168 [6], partner 0.125 µg/mL | 0.756 | 0.748 | 0.77 | – | –
B. subtilis 168 [6], partner 0.2 µg/mL | 0.814 | 0.85 | 0.831 | – | –
B. subtilis 168 [6], partner 0.4 µg/mL | 0.562 | 0.581 | 0.575 | – | –
B. subtilis 168 [6], partner 1 µg/mL | 0.332 | 0.342 | 0.365 | – | –
B. subtilis 168 [6], partner 2 µg/mL | 0.326 | 0.29 | 0.235 | – | –
S. aureus DSM 20231 [5], partner 0.125 µg/mL | 0.804 | 0.921 | – | 0.908 | 0.596
S. aureus DSM 20231 [5], partner 0.25 µg/mL | – | – | – | 0.812 | 0.631
S. aureus DSM 20231 [5], partner 0.5 µg/mL | – | – | – | 0.48 | 0.613

fitness
Conditions | first compound 0.39 µg/mL | first compound 0.78 µg/mL | first compound 1.56 µg/mL
B. subtilis 168 [6], partner 0.25 µg/mL | 0.695 | 0.738 | 0.71
B. subtilis 168 [6], partner 0.5 µg/mL | 0.492 | 0.481 | 0.514
S. aureus DSM 20231 [5], partner 0.125 µg/mL | – | – | 0.876
S. aureus DSM 20231 [5], partner 0.25 µg/mL | 0.605 | 0.639 | 0.682
S. aureus DSM 20231 [5], partner 0.5 µg/mL | 0.164 | – | 0.222
S. aureus DSM 20231 [5], partner 1 µg/mL | 0.0431 | 0.0497 | 0.0562

C[C@@H]1O[C@@H]1P(=O)(O)O [Fosfomycin] + CC(=O)NC[C@H]1CN(c2ccc(N3CCOCC3)c(F)c2)C(=O)O1 [Linezolid]
Conditions | Bliss interaction score
B. subtilis 168 [3] | 0.123
S. aureus DSM 20231 [2] | 0.0569
S. aureus Newman | -0.134
S. pneumoniae D39V [1] | 0.0981

Conditions | fitness
B. subtilis 168 [6], first compound 1.562 µg/mL, partner 0.125 µg/mL | 0.507
B. subtilis 168 [6], first compound 3.124 µg/mL, partner 0.125 µg/mL | 0.437
B. subtilis 168 [6], first compound 6.248 µg/mL, partner 0.125 µg/mL | 0.304
S. aureus DSM 20231 [5], first compound 0.781 µg/mL, partner 0.125 µg/mL | 0.691
S. aureus DSM 20231 [5], first compound 0.781 µg/mL, partner 0.25 µg/mL | 0.581
S. aureus DSM 20231 [5], first compound 0.781 µg/mL, partner 0.5 µg/mL | 0.167
S. aureus DSM 20231 [5], first compound 1.562 µg/mL, partner 0.125 µg/mL | 0.598
S. aureus DSM 20231 [5], first compound 1.562 µg/mL, partner 0.25 µg/mL | 0.495
S. aureus DSM 20231 [5], first compound 1.562 µg/mL, partner 0.5 µg/mL | 0.0991
S. aureus DSM 20231 [5], first compound 3.124 µg/mL, partner 0.125 µg/mL | 0.459
S. aureus DSM 20231 [5], first compound 3.124 µg/mL, partner 0.25 µg/mL | 0.339
S. aureus DSM 20231 [5], first compound 3.124 µg/mL, partner 0.5 µg/mL | 0.0673
S. pneumoniae D39V [4], first compound 1.25 µg/mL, partner 0.105 µg/mL | 0.839
S. pneumoniae D39V [4], first compound 1.25 µg/mL, partner 0.21 µg/mL | 0.76
S. pneumoniae D39V [4], first compound 1.25 µg/mL, partner 0.4 µg/mL | 0.314
S. pneumoniae D39V [4], first compound 1.25 µg/mL, partner 0.42 µg/mL | 0.605
S. pneumoniae D39V [4], first compound 1.25 µg/mL, partner 0.8 µg/mL | 0.138
S. pneumoniae D39V [4], first compound 2.5 µg/mL, partner 0.105 µg/mL | 0.803
S. pneumoniae D39V [4], first compound 2.5 µg/mL, partner 0.2 µg/mL | 0.626
S. pneumoniae D39V [4], first compound 2.5 µg/mL, partner 0.21 µg/mL | 0.729
S. pneumoniae D39V [4], first compound 2.5 µg/mL, partner 0.4 µg/mL | 0.315
S. pneumoniae D39V [4], first compound 2.5 µg/mL, partner 0.42 µg/mL | 0.522
S. pneumoniae D39V [4], first compound 2.5 µg/mL, partner 0.8 µg/mL | 0.132
S. pneumoniae D39V [4], first compound 5 µg/mL, partner 0.105 µg/mL | 0.721
S. pneumoniae D39V [4], first compound 5 µg/mL, partner 0.2 µg/mL | 0.564
S. pneumoniae D39V [4], first compound 5 µg/mL, partner 0.21 µg/mL | 0.704
S. pneumoniae D39V [4], first compound 5 µg/mL, partner 0.4 µg/mL | 0.311
S. pneumoniae D39V [4], first compound 5 µg/mL, partner 0.42 µg/mL | 0.421
S. pneumoniae D39V [4], first compound 5 µg/mL, partner 0.8 µg/mL | 0.136

fitness, one replicate
Conditions | first compound 0.781 µg/mL | first compound 1.562 µg/mL | first compound 3.124 µg/mL | first compound 6.248 µg/mL
B. subtilis 168 [6], partner 0.0625 µg/mL | – | 0.726 | 0.606 | 0.368
S. aureus DSM 20231 [5], partner 1 µg/mL | 0.0309 | 0.0297 | 0.0078 | –
